Experimental data reported in patent US11858894B2, “Crystalline form of 1-(5-(2,4-Difluorophenyl)-1-((3-fluorophenyl)sulfonyl)-4-methoxy-1H-pyrrol-3-yl)-n-methylmethanamine salt” (Daewoong Pharmaceutical Co., Ltd., priority 2016, dated 2024).

Key:
[1] = Stability confirmation test (impurity formation during storage under severe conditions, liquid chromatography); type: physicochemical
Protocol: The stability test was carried out for the crystalline forms prepared in the Examples to evaluate the degree to which impurities were formed during storage under severe conditions (moisture-proof condition and high-humidity exposure condition). The results of the stability test under the moisture-proof condition were shown in Table 2 below, and the results of the stability test under the high-humidity exposure condition were shown in Table 3 below. For the stability test, vials containing 10 mg of each sample which was precisely weighed and taken were prepared in the planned quantity, and they were stored by dividing into the moisture-proof condition (60° C. and less than 10% relative humidity) and under the high-humidity exposure condition (60° C. and 95% relative humidity). However, under the high-humidity exposure condition, a stopper of the vial was not used to keep so that the sample is in sufficient contact with a moisture in the air. At a fixed point of time after the initiation of the test, two vials per point of time were taken (number of samples per test n=2). 10 ml of methanol was added to each vial to dissolve the sample, which was then centrifuged. The resulting supernatant was analyzed using a liquid chromatography. The peak area was determined by integration for all detected peaks, and the relative peak area for the main component and the total impurity was calculated and expressed as an average value.

Solubility test in water = type: physicochemical; conditions: thermodynamic from solid; deionized water, shaking and ultrasonic shaking
Protocol: For the solubility test in water, a sample of less than 10 mg was first precisely weighed and taken and placed into a vial, to which 50 μl of deionized water was added, shaking for 30 seconds and ultrasonic shaking for 1 minute were carried out, and these processes were repeated several times. The water solubility was calculated by measuring the amount of water used to dissolve all the samples.

[2] = high-humidity exposure condition (60° C., 95% relative humidity), After 1 week
[3] = high-humidity exposure condition (60° C., 95% relative humidity), After 2 weeks
[4] = high-humidity exposure condition (60° C., 95% relative humidity), After 4 weeks
[5] = high-humidity exposure condition (60° C., 95% relative humidity), Initial
[6] = moisture-proof condition (60° C., less than 10% relative humidity), After 2 weeks
[7] = moisture-proof condition (60° C., less than 10% relative humidity), After 4 weeks
[8] = moisture-proof condition (60° C., less than 10% relative humidity), Initial

| Peak area of main component [1, 2] [%] | Peak area of total impurities [1, 2] [%] | Peak area of main component [1, 3] [%] | Peak area of total impurities [1, 3] [%] | Peak area of main component [1, 4] [%] | Peak area of total impurities [1, 4] [%] | Peak area of main component [1, 5] [%] | Peak area of total impurities [1, 5] [%] | Peak area of main component [1, 6] [%] | Peak area of total impurities [1, 6] [%] | Peak area of main component [1, 7] [%] | Peak area of total impurities [1, 7] [%] | Peak area of main component [1, 8] [%] | Peak area of total impurities [1, 8] [%] | solubility (Solubility test in water) [µg/mL] | Compound |
| --- | --- | --- | --- | --- | --- | --- | --- | --- | --- | --- | --- | --- | --- | --- | --- |
| 99.40 | 0.60 | 99.32 | 0.68 | 99.30 | 0.70 | 99.38 | 0.62 | 99.36 | 0.64 | 99.37 | 0.63 | 99.38 | 0.62 | 1730 to 2600 | CNCc1cn(S(=O)(=O)c2cccc(F)c2)c(-c2ccc(F)cc2F)c1OC.O=C(O)/C=C/C(=O)O [Example 5-1, 1-(5-(2,4-difluorophenyl)-1-((3-fluorophenyl)sulfonyl)-4-methoxy-1H-pyrrol-3-yl)-N-methylmethanamine fumarate] |
| 99.56 | 0.44 | 99.53 | 0.47 | 99.47 | 0.54 | 99.55 | 0.45 | 99.61 | 0.39 | 99.55 | 0.45 | 99.55 | 0.45 |  | CNCc1cn(S(=O)(=O)c2cccc(F)c2)c(-c2ccc(F)cc2F)c1OC.O=C(O)CCC(=O)O [Example 3-1, 1-(5-(2,4-difluorophenyl)-1-((3-fluorophenyl)sulfonyl)-4-methoxy-1H-pyrrol-3-yl)-N-methylmethanamine succinate] |
|  |  |  |  |  |  |  |  |  |  |  |  |  |  | < 160 | CNCc1cn(S(=O)(=O)c2cccc(F)c2)c(-c2ccc(F)cc2F)c1OC [Comparative Example 1, 1-(5-(2,4-difluorophenyl)-1-((3-fluorophenyl)sulfonyl)-4-methoxy-1H-pyrrol-3-yl)-N-methylmethanamine free base] |

More lines, now with the values behind:

| Compound | Peak area of main component [1, 2] [%] | Peak area of total impurities [1, 2] [%] | Peak area of main component [1, 3] [%] | Peak area of total impurities [1, 3] [%] | Peak area of main component [1, 4] [%] | Peak area of total impurities [1, 4] [%] | Peak area of main component [1, 5] [%] | Peak area of total impurities [1, 5] [%] | Peak area of main component [1, 6] [%] | Peak area of total impurities [1, 6] [%] | Peak area of main component [1, 7] [%] | Peak area of total impurities [1, 7] [%] | Peak area of main component [1, 8] [%] | Peak area of total impurities [1, 8] [%] | solubility (Solubility test in water) [µg/mL] |
| --- | --- | --- | --- | --- | --- | --- | --- | --- | --- | --- | --- | --- | --- | --- | --- |
| CNCc1cn(S(=O)(=O)c2cccc(F)c2)c(-c2ccc(F)cc2F)c1OC.O=C(O)C(O)C(O)C(=O)O [Example 4-1, 1-(5-(2,4-difluorophenyl)-1-((3-fluorophenyl)sulfonyl)-4-methoxy-1H-pyrrol-3-yl)-N-methylmethanamine tartrate] | 99.48 | 0.52 | 99.43 | 0.57 | 99.23 | 0.77 | 99.52 | 0.48 | 99.54 | 0.46 | 99.48 | 0.52 | 99.52 | 0.48 |  |
| CNCc1cn(S(=O)(=O)c2cccc(F)c2)c(-c2ccc(F)cc2F)c1OC.Cl [Example 1-1, 1-(5-(2,4-difluorophenyl)-1-((3-fluorophenyl)sulfonyl)-4-methoxy-1H-pyrrol-3-yl)-N-methylmethanamine hydrochloride] | 99.81 | 0.19 | 99.80 | 0.20 | 99.80 | 0.20 | 99.82 | 0.18 | 99.80 | 0.19 | 99.80 | 0.20 | 99.82 | 0.18 |  |
